Data on 23 compounds can be found in ChEMBL document CHEMBL1122450, “Biological effects of modified colchicines. 2. Evaluation of catecholic colchicines, colchifolines, colchicide, and novel N-acyl- and N-aroyldeacetylcolchicines” (J Med Chem, 1983).

Active and inactive are the calls of the source.

In data set [1] the test system is Mus musculus. Nature of the data set: Toxicity found after a single intramuscular injection in mice. The following applies: in vivo, im.
Data set [2] is filed under the species Mus musculus. Kind of data set: Toxicity in the P388 NCI screen defined as the dose that caused an average wt. loss>3g in at least one out of set of mice or the death of one or more of mice. The data set is classed as organism-based. The note with it: in vivo.
The subject of data set [3] is P388. Kind of data set: Potency against lymphocytic leukemia P388 screen in mice. The data set is classed as functional, Mus musculus.
For data set [4], the species on record is Mus musculus. Nature of the data set: Toxicity in the P388 NCI screen in second assay. The data set is classed as organism-based. The following applies: in vivo.
In data set [5] the test system is Tubulin (Rattus norvegicus). The following applies: Brain, at 25 µM.
The test system of data set [6] is P388. Nature of the data set: Potency against lymphocytic leukemia P388 screen in mice; inactive. The class given is functional, cell-based. The following applies: Mus musculus.

Take `COc1cc2c(c(OC)c1OC)-c1ccc(OC)c(=O)cc1[C@@H](NC(=O)c1ccccc1)CC2`: the Toxicity with Mus musculus [1] turned out to be 60.5 µM/kg; in the data set filed under Mus musculus [2] it was 4.3 µM/kg. In the data set on P388 [3], this compound had a Potency of 1 µM/kg.

`CCOC(=O)N[C@H]1CCc2cc(OC)c(OC)c(OC)c2-c2ccc(OC)c(=O)cc21`: the Toxicity turned out to be 1.5 µM/kg in the data set filed under Mus musculus [4] and 11.7 µM/kg in the data set listed under Mus musculus [2].

On to `COc1cc(/C=C/C(=O)N[C@H]2CCc3cc(OC)c(OC)c(OC)c3-c3ccc(OC)c(=O)cc32)cc(OC)c1O`, for which the Binding in data set [5] amounted to 69%.

On to `CCCC(=O)N[C@H]1CCc2cc(OC)c(OC)c(OC)c2-c2ccc(OC)c(=O)cc21`, for which the Toxicity in the data set on Mus musculus [1] and in the data set listed under Mus musculus [2] was 5.8 µM/kg each time. In the data set on P388 [3], this compound returned a Potency of 0.7 µM/kg.

`COc1cc2c(c3c1OCO3)-c1ccc(OC)c(=O)cc1[C@@H](NC(C)=O)CC2`: the results for the Toxicity in the data set on Mus musculus [1] and in the data set listed under Mus musculus [2] were greater than 167 µM/kg and 104 µM/kg, respectively. Further, the Potency result in the data set on P388 [6] was “inactive”.

Regarding `COc1cc2c(c(O)c1O)-c1ccc(OC)c(=O)cc1[C@@H](NC(C)=O)CC2`, the Toxicity in the data set with Mus musculus [1] was greater than 450 µM/kg; in the data set listed under Mus musculus [2], greater than 320 µM/kg. Moreover, the Potency result in the data set on P388 [6] is “inactive”.

`COc1cc2c(c(OC)c1OC)-c1ccc(OC)c(=O)cc1[C@@H](NC(=O)COc1ccccc1)CC2`: the Toxicity in the data set with Mus musculus [1] came to 61.3 µM/kg; in the data set listed under Mus musculus [2], 5.1 µM/kg. The compound also came in with a Potency in the data set on P388 [3] of 1.3 µM/kg.

In turn, `CCC(=O)N[C@H]1CCc2cc(OC)c(OC)c(OC)c2-c2ccc(OC)c(=O)cc21` had a Toxicity in the data set on Mus musculus [1] of 8.2 µM/kg.

Take `COc1cc2c(c(OC)c1OC)-c1ccc(OC)c(=O)cc1[C@@H](NC(C)=O)CC2` [COLCHICINE]: the figures for the Toxicity in the data set on Mus musculus [1] and in the data set filed under Mus musculus [2] were 3 µM/kg and 2.5 µM/kg, respectively. The same compound came in with a Potency with P388 [3] of 0.4 µM/kg.

Turning to `COc1cc2c(c(OC)c1OC)-c1cccc(=O)cc1[C@@H](NC(C)=O)CC2` [CHOLCHICIDE], the Toxicity in the data set with Mus musculus [1] was found to be 168.9 µM/kg; in the data set listed under Mus musculus [2], 54.2 µM/kg. The compound also returned a Potency with P388 [3] of 9.2 µM/kg.

In data set [5], `COc1cc2c(c(OC)c1OC)-c1ccc(OC)c(=O)cc1[C@@H](N(C)C(=O)CO)CC2` returned a Binding of 99%. For the same compound, the Toxicity stood at 14.5 µM/kg with Mus musculus [1] and 2.9 µM/kg in the data set filed under Mus musculus [2]. In the data set with P388 [3], this compound registered a Potency of 0.6 µM/kg.

As for `CCOCC(=O)N[C@H]1CCc2cc(OC)c(OC)c(OC)c2-c2ccc(OC)c(=O)cc21`, the Toxicity with Mus musculus [1] is 9 µM/kg; in the data set listed under Mus musculus [2], 2.8 µM/kg. Moreover, in the data set with P388 [3], the Potency came out at 0.4 µM/kg.

In the data set on Mus musculus [1], `COc1cc2c(c(OC)c1OC)-c1ccc(OC)c(=O)cc1[C@@H](NC(=O)C(C)(C)C)CC2` came in with a Toxicity of 9.3 µM/kg.

In the case of `COc1cc2c(c(OC)c1Oc1nnnn1-c1ccccc1)-c1ccc(OC)c(=O)cc1[C@@H](NC(C)=O)CC2`, the Binding in data set [5] came out at 52%.

As to `COc1cc2c(c(OC)c1OC)-c1ccc(OC)c(=O)cc1[C@@H](NC(=O)CO)CC2` [COLCHIFOLINE], the figures for the Toxicity in the data set with Mus musculus [1] and in the data set listed under Mus musculus [2] were 3.9 µM/kg and 3 µM/kg, respectively. In the data set with P388 [3], this compound came in with a Potency of 0.7 µM/kg.

On to `COc1cc2c(c(OC)c1OC)-c1ccc(=O)c(OC)cc1[C@@H](NC(=O)CO)CC2`, for which, in data set [5], the Binding amounted to 0%.

For the compound `COc1c2c(cc3c1-c1ccc(OC)c(=O)cc1[C@@H](NC(C)=O)CC3)OCO2`, the results for the Toxicity with Mus musculus [1] and in the data set filed under Mus musculus [2] were 9.7 µM/kg and 39.1 µM/kg, respectively. Further, the Potency in the data set with P388 [3] was less than 10 µM/kg.

In data set [5], `CCC(=O)N[C@H]1CCc2cc(OC)c(OC)c(OC)c2-c2ccc(=O)c(OC)cc21` came in with a Binding of 10%.

For the compound `COc1cc2c(c(OC)c1OC)-c1ccc(OC)c(=O)cc1[C@@H](NC(=O)/C=C(\C)C=C=C(C)/C=C/C1=C(C)CCCC1(C)C)CC2`, the Binding in data set [5] came out at 41%.

With `COc1c(Oc2nnnn2-c2ccccc2)cc2c(c1OC)-c1ccc(OC)c(=O)cc1[C@@H](NC(C)=O)CC2`, the Binding in data set [5] was determined as 27%.

In the case of `COc1c(O)c(O)cc2c1-c1ccc(OC)c(=O)cc1[C@@H](NC(C)=O)CC2`, the Toxicity was greater than 450 µM/kg in the data set on Mus musculus [1] and 54 µM/kg in the data set filed under Mus musculus [2]. Besides, the Potency with P388 [3] was found to be 20 µM/kg.

`COc1cc2c(c(OC)c1O)-c1ccc(OC)c(=O)cc1[C@@H](NC(=O)C(F)(F)F)CC2` registered a Binding in data set [5] of 96%. Further, the values for the Toxicity in the data set on Mus musculus [1] and in the data set listed under Mus musculus [2] were 32.5 µM/kg and 23.5 µM/kg, respectively. For the same compound, the Potency in the data set on P388 [3] is 3.8 µM/kg.

`COc1cc(C(=O)N[C@H]2CCc3cc(OC)c(OC)c(OC)c3-c3ccc(OC)c(=O)cc32)cc(OC)c1OC`: the figures for the Toxicity in the data set with Mus musculus [1] and in the data set listed under Mus musculus [2] were greater than 180 µM/kg and 72.6 µM/kg, respectively. The Potency with P388 [3] was 14 µM/kg.
